The source made the active and inactive calls.
Tests used:
[1] = target: T1, RNA-binding protein pos-1 (Caenorhabditis elegans, UniProt G5EF15); experiment: disruptors of C. elegans POS-1 RNA interaction – biochemical, fluorescence polarization, dose response (AID 1964);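 note: purified POS-1 fused to maltose binding protein made in E. coli; potency of compounds blocking POS-1 binding to fluorescent RNA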
T1 sequence (G5EF15 whole entry): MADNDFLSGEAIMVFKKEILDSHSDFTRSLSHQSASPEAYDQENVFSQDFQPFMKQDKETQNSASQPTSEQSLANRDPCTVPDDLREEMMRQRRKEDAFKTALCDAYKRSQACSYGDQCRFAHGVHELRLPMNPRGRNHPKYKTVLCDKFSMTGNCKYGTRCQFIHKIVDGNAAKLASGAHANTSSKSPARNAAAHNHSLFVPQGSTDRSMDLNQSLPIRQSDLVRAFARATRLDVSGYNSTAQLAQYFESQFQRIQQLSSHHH

[2] = target: T2, Zinc finger protein mex-5 (Caenorhabditis elegans, UniProt Q9XUB2); experiment: potency of MEX-5 RNA-binding blockers – biochemical, C. elegans, fluorescence polarization, dose response (AID 1960)
T2 sequence (Q9XUB2 whole entry): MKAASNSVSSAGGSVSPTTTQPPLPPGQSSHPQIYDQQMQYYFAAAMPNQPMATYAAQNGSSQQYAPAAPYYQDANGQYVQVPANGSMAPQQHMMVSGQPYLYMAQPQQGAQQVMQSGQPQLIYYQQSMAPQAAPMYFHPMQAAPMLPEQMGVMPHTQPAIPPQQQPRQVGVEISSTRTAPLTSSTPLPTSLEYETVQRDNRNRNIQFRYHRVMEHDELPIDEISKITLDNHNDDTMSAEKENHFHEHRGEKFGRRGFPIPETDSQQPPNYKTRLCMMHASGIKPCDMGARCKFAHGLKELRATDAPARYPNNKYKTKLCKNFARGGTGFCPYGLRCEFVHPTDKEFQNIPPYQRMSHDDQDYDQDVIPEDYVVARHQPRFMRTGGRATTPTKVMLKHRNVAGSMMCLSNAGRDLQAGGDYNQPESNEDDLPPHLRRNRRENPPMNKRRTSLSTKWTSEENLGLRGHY

CHO-K1 = experiment: (§1) Counterscreen for antagonists of the orexin 1 receptor (OX1R; HCRTR1): Homogeneous time resolved fluorescence (HTRF)-based cell-based dose response assay to identify antagonists of the parental CHO-K1 cell line. [Related pubchem assays (depositor defined):AID434989, AID435008, AID463079, AID485270, AID492963, AID492964, AID492965, AID493232, AID504699, AID504701]; type: functional; details: Cricetulus griseus
[3] = as §1, with “Fluorescence-based” for “Homogeneous time resolved fluorescence (HTRF)-based”, “cell-based high throughput” for “cell-based”, “CHO” for “CHO-K1”; type: functional
[4] = target: T3, Orexin/Hypocretin receptor type 1 (Homo sapiens, UniProt O43613); experiment: Homogeneous Time Resolved Fluorescence (HTRF)-based cell-based high throughput dose response assay for antagonists of the orexin 1 receptor (OX1R; HCRTR1). [Related pubchem assays (depositor defined):AID434989, AID435008, AID463079, AID485270, AID492963, AID492964, AID492965, AID493232, AID504717, AID504718]; type: functional
T3 sequence (O43613 whole entry): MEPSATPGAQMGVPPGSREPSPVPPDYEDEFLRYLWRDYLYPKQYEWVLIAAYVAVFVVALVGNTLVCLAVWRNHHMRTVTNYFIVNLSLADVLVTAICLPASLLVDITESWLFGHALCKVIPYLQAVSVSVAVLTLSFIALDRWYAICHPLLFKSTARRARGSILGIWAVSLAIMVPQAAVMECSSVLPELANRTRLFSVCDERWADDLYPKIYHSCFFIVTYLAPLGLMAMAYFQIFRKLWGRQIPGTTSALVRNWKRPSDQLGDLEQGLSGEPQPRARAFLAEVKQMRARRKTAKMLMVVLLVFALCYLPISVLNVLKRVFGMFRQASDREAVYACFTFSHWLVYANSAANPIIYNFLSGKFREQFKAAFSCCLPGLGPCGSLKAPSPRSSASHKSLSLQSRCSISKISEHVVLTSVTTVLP

[5] = target: T3, Orexin/Hypocretin receptor type 1; experiment: Fluorescence-based cell-based high throughput dose response assay for antagonists of the orexin 1 receptor (OX1R; HCRTR1). [Related pubchem assays (depositor defined):AID434989, AID435008, AID463079, AID485270, AID492963, AID492964, AID492965, AID493232, AID504717, AID504718]; type: functional
[6] = target: T4, Polyadenylate-binding protein 1 (Homo sapiens, UniProt P11940); experiment: MLLE binding blockers, Cy5 peptide tracer – biochemical, fluorescence polarization, Cy5-PAM2 peptide, secondary, miRNA deadenylation inhibitor project, dose response (AID 602260); type: functional; details: read-out: IC50_Mean
T4 sequence (P11940 whole entry, the tested form may be a part): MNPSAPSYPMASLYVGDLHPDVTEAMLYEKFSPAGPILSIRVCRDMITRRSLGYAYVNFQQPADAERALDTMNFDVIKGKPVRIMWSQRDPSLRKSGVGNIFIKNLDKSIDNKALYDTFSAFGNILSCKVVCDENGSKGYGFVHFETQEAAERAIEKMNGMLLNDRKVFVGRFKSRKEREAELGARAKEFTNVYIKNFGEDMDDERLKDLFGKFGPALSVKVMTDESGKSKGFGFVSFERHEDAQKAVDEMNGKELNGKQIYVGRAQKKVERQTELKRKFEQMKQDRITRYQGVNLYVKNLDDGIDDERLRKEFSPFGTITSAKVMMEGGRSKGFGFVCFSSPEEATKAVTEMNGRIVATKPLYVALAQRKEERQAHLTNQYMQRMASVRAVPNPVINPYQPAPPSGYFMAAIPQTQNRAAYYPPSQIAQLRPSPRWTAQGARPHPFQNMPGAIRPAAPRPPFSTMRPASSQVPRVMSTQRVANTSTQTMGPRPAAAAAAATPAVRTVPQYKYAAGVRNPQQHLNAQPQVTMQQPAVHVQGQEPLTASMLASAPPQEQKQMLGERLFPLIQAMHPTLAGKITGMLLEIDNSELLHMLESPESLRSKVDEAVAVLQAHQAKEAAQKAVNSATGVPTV

[7] = target: T4, Polyadenylate-binding protein 1; experiment: MLLE domain peptide-binding blockers, IC50 – biochemical, fluorescence polarization, FITC-PAM2 peptide, dose response (AID 602259); type: functional; details: read-out: IC50_Mean
Orexin receptor type 2 [8] = target: T5, Orexin receptor type 2 (Homo sapiens, UniProt O43614); experiment: Counterscreen assay for antagonists of the orexin 1 receptor (OX1R; HCRTR1): Fluorescence-based cell-based dose response assay for antagonists of the orexin 2 receptor (OX2R; HCRTR2), run by assay provider.; type: functional
T5 sequence (O43614 whole entry): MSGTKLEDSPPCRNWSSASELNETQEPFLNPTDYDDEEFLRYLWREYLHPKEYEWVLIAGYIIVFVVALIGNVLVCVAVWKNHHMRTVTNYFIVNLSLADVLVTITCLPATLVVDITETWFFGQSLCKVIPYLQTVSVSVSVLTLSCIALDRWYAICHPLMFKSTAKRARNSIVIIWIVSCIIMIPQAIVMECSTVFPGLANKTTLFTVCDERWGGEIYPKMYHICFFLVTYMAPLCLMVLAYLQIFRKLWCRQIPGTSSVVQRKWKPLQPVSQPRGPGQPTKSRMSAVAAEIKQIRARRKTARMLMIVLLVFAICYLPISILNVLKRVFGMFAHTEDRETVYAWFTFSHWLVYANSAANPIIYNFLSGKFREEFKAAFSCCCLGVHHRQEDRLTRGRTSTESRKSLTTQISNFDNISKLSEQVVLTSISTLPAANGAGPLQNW

Orexin receptor type 2 [9] = target: T5, Orexin receptor type 2; experiment: Counterscreen assay for antagonists of the orexin 1 receptor (OX1R; HCRTR1): Homogeneous Time Resolved Fluorescence (HTRF)-based cell-based dose response assay for antagonists of the orexin 2 receptor (OX2R; HCRTR2), run by assay provider.; type: functional
Insulin-degrading enzyme [10] = target: T6, Insulin-degrading enzyme (Homo sapiens, UniProt P14735); experiment: recombinant IDE activation, cell-free – biochemical, fluorescence polarization, counter-screen for IDE activator project, dose response (AID 588681)
T6 sequence (P14735 whole entry): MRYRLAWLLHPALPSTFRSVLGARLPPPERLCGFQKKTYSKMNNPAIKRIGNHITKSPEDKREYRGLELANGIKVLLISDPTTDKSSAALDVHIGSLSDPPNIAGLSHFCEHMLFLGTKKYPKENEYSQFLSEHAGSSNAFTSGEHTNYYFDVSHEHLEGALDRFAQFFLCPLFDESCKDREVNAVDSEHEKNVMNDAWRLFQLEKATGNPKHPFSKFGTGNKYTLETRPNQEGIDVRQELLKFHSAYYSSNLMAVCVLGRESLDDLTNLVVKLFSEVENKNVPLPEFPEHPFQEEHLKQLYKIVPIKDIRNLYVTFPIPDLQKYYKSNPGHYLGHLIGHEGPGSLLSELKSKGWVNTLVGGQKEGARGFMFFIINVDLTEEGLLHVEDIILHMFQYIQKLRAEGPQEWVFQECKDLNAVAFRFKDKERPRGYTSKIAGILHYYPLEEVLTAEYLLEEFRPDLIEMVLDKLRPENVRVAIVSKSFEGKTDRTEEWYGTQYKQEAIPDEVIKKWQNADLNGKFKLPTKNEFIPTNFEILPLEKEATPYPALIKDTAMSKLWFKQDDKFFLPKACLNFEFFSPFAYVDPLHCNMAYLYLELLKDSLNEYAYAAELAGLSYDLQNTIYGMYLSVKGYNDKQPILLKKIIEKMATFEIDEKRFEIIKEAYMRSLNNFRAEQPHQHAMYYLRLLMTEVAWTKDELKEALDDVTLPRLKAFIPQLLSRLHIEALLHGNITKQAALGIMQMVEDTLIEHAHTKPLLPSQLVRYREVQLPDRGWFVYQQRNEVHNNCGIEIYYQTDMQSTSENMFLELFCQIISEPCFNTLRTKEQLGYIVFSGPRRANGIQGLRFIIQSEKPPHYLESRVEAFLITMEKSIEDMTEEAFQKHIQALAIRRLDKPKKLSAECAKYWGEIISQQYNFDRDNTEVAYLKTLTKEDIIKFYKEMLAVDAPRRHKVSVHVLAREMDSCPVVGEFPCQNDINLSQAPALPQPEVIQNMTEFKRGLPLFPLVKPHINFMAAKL

Insulin-degrading enzyme [11] = target: T6, Insulin-degrading enzyme; experiment: cellular IDE activation of Abeta substrate cleavage – fluorescence polarization, HEK cells, dose response (AID 588439); type: functional, cell-based
HEK293 [12] = experiment: membrane integrity loss in HEK cells – cell-based, fluorescence, cytotoxicity control for IDE activator project, dose response (AID 588440); type: functional; details: Homo sapiens;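 note: cytotoxicity by LDH release measuring loss of membrane integrity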
HEK293 [13] = experiment: optical interference in Abeta FP readout, dose response, artefact control for IDE activator project, biochemical, fluorescence polarization (AID 588442); type: functional, cell-based; details: Homo sapiens
[14] = target: T7, Sentrin-specific protease 8 (Homo sapiens, UniProt Q96LD8); experiment: inhibition of human SENP8 cleavage activity – biochemical, luminescence, SAR follow-up (AID 504501); type: functional
T7 sequence (Q96LD8 whole entry): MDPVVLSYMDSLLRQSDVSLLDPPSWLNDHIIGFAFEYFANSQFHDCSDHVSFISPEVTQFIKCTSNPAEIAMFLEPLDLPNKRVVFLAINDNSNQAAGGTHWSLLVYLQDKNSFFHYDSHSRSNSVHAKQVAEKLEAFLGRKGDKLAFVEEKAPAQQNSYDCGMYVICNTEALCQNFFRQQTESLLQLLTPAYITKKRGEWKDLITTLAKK

Caspase-3 = target: T8, Caspase-3 (Homo sapiens, UniProt P42574); experiment: SAR Analysis of small molecule inhibitors of Sentrin-specific proteases (SENPs) using a Caspase-3 Selectivity assay. [Related pubchem assays (depositor defined):AID2540, AID2599, AID434973, AID489001]; type: functional
T8 sequence (P42574 whole entry): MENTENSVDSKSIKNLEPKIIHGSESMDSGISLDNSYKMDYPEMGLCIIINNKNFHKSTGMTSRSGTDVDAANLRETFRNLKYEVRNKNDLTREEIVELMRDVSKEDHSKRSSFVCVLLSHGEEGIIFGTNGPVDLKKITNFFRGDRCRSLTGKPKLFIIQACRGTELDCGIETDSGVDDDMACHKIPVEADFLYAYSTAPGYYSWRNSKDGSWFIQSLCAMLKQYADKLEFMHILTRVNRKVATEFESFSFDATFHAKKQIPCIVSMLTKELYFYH

[15] = target: T9, Sentrin-specific protease 6 (Homo sapiens, UniProt Q9GZR1); experiment: SAR Analysis of small molecule inhibitors of Sentrin-specific protease 6 (SENP6) using a Luminescent assay. [Related pubchem assays (depositor defined):AID2582, AID2599]; type: functional
T9 sequence (Q9GZR1 whole entry): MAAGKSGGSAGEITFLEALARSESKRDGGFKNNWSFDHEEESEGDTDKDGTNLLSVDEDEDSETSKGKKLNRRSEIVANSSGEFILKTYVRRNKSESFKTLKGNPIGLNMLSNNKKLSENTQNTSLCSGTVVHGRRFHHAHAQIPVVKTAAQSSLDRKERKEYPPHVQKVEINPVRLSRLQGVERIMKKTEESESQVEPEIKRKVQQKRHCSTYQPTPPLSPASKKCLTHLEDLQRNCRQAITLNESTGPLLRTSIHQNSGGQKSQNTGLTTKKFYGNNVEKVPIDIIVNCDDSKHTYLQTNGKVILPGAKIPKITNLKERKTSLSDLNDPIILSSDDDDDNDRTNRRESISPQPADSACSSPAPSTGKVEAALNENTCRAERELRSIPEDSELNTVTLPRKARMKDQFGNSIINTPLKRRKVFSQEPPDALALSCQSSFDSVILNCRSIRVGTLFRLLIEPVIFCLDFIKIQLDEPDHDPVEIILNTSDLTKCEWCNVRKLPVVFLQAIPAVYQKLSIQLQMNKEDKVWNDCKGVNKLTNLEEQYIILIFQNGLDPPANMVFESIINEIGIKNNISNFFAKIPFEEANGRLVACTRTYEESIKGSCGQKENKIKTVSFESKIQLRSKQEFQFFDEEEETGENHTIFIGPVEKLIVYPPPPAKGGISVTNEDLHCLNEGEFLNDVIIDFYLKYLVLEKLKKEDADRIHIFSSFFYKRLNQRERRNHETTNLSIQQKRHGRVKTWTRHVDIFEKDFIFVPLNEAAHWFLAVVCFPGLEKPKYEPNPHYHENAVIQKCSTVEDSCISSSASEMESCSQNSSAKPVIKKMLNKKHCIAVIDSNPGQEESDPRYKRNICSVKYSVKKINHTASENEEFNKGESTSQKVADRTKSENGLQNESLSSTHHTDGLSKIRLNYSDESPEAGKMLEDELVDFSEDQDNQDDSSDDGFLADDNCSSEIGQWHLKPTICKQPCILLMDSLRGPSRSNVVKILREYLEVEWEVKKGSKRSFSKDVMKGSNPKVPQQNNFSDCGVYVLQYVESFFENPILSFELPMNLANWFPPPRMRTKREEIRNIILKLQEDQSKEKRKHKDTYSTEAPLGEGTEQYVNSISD

[16] = target: T10, Sentrin-specific protease 7 (Homo sapiens, UniProt Q9BQF6); experiment: inhibition of human SENP7 cleavage activity – biochemical, luminescence, SAR follow-up (AID 504497); type: functional
T10 sequence (Q9BQF6 whole entry): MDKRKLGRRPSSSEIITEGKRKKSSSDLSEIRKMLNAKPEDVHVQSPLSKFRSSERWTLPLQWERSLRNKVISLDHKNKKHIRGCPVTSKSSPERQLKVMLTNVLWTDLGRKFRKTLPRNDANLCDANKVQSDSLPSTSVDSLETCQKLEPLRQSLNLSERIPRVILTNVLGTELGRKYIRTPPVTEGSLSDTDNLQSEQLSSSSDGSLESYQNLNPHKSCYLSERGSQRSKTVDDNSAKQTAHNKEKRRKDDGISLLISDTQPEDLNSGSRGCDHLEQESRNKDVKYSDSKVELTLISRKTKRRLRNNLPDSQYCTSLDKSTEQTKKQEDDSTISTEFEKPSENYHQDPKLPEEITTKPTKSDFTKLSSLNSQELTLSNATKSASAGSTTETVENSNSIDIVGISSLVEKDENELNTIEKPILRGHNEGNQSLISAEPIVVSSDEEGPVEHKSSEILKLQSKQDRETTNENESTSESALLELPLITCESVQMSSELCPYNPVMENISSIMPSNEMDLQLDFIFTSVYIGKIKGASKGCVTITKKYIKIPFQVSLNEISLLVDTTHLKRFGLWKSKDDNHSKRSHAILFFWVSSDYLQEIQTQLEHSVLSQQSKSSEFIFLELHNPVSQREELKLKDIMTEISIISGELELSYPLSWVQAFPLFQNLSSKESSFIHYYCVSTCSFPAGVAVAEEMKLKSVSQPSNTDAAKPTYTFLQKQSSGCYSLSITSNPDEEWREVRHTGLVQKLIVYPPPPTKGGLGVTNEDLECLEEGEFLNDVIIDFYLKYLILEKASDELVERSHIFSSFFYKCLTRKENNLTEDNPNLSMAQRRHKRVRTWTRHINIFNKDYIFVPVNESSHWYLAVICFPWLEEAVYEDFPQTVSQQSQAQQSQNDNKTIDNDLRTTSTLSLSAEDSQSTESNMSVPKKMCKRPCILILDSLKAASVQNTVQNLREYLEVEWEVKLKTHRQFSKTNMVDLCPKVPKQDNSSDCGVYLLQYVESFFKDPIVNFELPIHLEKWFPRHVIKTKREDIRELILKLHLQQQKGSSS

Structure (SMILES): COc1ccc(/C=c2\sc3nc(-c4ccccc4OC)nn3c2=O)c(OC)c1
- EC50 [1]: 21.5 µM (active)
- EC50 [2]: 31.4 µM (active)
- IC50 (CHO-K1): > 66.2 µM (inactive)
- IC50 [3]: > 49.8 µM (inactive)
- IC50 [4]: 0.723 µM (active)
- IC50 [5]: 0.526 µM (active)
- IC50 [6]: > 66 µM (inactive)
- IC50 [7]: 48.3 µM (inactive)
- IC50 (Orexin receptor type 2 [8]): 33.5 µM (inactive)
- IC50 (Orexin receptor type 2 [9]): > 50 µM (inactive)

Structure (SMILES): CC(C)CCn1nnnc1CN1CCN(c2ccccc2)CC1
- EC50 (Insulin-degrading enzyme [10]): 29.8 µM (inactive)
- EC50 (Insulin-degrading enzyme [11]): 32.3 µM (inactive)
- IC50 (HEK293 [12]): > 89.1 µM (inactive)
- EC50 (HEK293 [13]): > 55.9 µM (inactive)

Structure (SMILES): CC1CC(C)CN(S(=O)(=O)c2ccc(C(=O)Nc3nc4ccc(C(C)C)cc4s3)cc2)C1 (stereo not drawn)
- IC50 [14]: > 99 µM (inactive)
- IC50 (Caspase-3): > 99 µM (inactive)
- IC50 [15]: > 99 µM (inactive)
- IC50 [16]: > 99 µM (inactive)

Reference: ChEMBL document CHEMBL1201862, “PubChem BioAssay data set” (2004)
